Measured values: patent US12564601B2, “Methods for treating hepatitis B infection” (priority 2017, dated 2026)
Where two headings read alike, the source gives them in different places.

Experiments:
HBV = assay: Entecavir combination study in HBV-expressing mouse (HDI model); format: in vivo, mice; details: for circulating (plasma) HBsAg / hepatic viral RNAs (liver HBV mRNA and pgRNA): HDI model; for circulating (plasma) HBsAg: ELISA; for hepatic viral RNAs (liver HBV mRNA and pgRNA): qPCR
Experimental: The RNAi oligonucletoides targeting the S antigen impact both the viral polymerase and HBsAg protein. In this study, the combinational effects of HBV(s)-219P2 as a monotherapy and combinational treatment with entecavir was explored in an HBV-expressing mouse (HDI model) for antiviral activity.
Mice were administered daily oral dosing of 500 ng/kg Entecavir (ETV) for 14 days. A single subcutaneous administration of HBV(s)-219P2 took place. Circulating viral load (HBV DNA) was measured by qPCR (FIG. 15A), plasma HBsAg level was measured by ELISA (FIG. 15B), and liver HBV mRNA and pgRNA levels were measured by qPCR.

HBsAg = assay: Plasma HBsAg suppression, S- versus X-targeting oligonucleotides, HDI model; format: in vivo, mice; details: single saturating 9 mg/kg SC dose, n=3
Experimental: In this study, HBV-expressing mice (HDI model) were administered HBV(s)-219P2, GalXC-HBVX (same sequence as the GalXC-HBVX used in FIGS. 12A and 12B), or a combination of the two RNAi oligonucleotides and plasma HBsAg level two weeks or nine weeks post dose were monitored.

HBsAg mRNA = assay: Time course of HBsAg mRNA expression in HDI model of HBV; format: in vivo, mouse; details: three once-weekly doses of 3 mg/kg
Experimental: The durational effects of the HBV(s)-219P1 oligonucleotide were examined in two different mouse models of HBV—an HDI model, which is cccDNA-dependent, and an AAV model, which is cccDNA independent. A time course (12 weeks) analysis of HBsAg mRNA expression was performed in the context of a treatment involving three once-weekly doses of 3 mg/kg with the HBV(s)-219P1 oligonucleotide targeting HBsAg mRNA compared with vehicle control and an RNAi oligonucleotide targeting HBxAg mRNA in the HDI model of HBV (FIG. 12A).

[1] = tested on: HBV Genotype A S ORF reporter sequence; assay: psiCHECK2 dual-luciferase reporter mismatch assay in HeLa cells; format: cell-based
Description: A psiCHECK-2 dual-luciferase reporter system was utilized to evaluate the effects of a mismatch at a selected position in each of HBV-217, HBV-219, HBV-254, HBV-255, and HBV-258. The psiCHECK vector enables monitoring of changes in expression of a target gene fused to a reporter gene, where active RNAi degrades the fusion construct to produce a corresponding decrease in reporter signal. The diagram in FIG. 6 generically depicts the vector utilized in these assays. The parent partial reporter sequence contained 120 base-pair fragments from Genotype A (GenBank: AM282986.1) around target sites of interest in the S ORE. […]
The psiCHECK2 reporter assays with each oligonucleotide were conducted over a three-day period using a 6-point, 5-fold serial dilution starting at 1 nM transfected in HeLa cells. […] The cells were then incubated at 37° C. in a CO2 incubator until the cells were ready to harvest and assay for the target gene. On day 3, 100 μL of Dual-Glo Reagent was added to each well, mixed and incubated for 10 minutes before reading the luminescence. A further 100 μL of Dual-Glo Stop & Glo was added to each well, mixed and incubated for 10 minutes before reading the luminescence. […] The EC50s values determined for each oligonucleotide are shown in Table 3 with additional specifications.

HBsAg viral transcript = assay: HBsAg levels in HDI-mice after subcutaneous HBV-254; format: in vivo
Experimental: Preclinical potency was further evaluated in mice following a QW×3 dosing regimen in which HBV-254 was subcutaneously administered at 3 mg/kg (FIG. 3). The administration points are indicated by arrows in the figure. HBsAg levels were monitored in both oligonucleotide treated and untreated control mice for a period spanning 147 days.

C=C1[C@H](CO)[C@@H](O)C[C@@H]1n1cnc2c(=O)[nH]c(N)nc21 [entecavir, Entecavir]
mean decrease in HBV DNA in plasma relative to PBS (HBV; 500 ng/kg PO daily for 14 days, n=6): ~1.6 log | circulating (plasma) HBsAg (HBV): No significant decrease | circulating (plasma) HBsAg (HBV; listed as ETV): no efficacy | hepatic viral RNAs (liver HBV mRNA and pgRNA) (HBV): No significant decrease | hepatic viral RNAs (liver HBV mRNA and pgRNA) (HBV; listed as ETV): no efficacy

GalXC-HBVX: RNAi oligonucleotide targeting HBxAg mRNA, sense strand SEQ ID NO: 39, antisense strand SEQ ID NO: 40 (sense UGCACUUCGCGUCACCUCUAGCAGCCGAAAGGCUGC; antisense UAGAGGUGACGCGAAGUGCAGG; GalNAc conjugate (GalXC), modification pattern not given here)
plasma HBsAg suppression 9 weeks post dose / duration (HBsAg): significant recovery of HBsAg | duration of activity (HBsAg mRNA): shorter duration | reduction of HBsAg mRNA expression (HBsAg mRNA; 12-week time course): ~3.0 log

HBV-254: HBsAg-targeting duplex oligonucleotide, sense strand SEQ ID NO: 23, antisense strand SEQ ID NO: 24 (sense GUGGUGGACUUCUCUCAAUAGCAGCCGAAAGGCUGC; antisense UAUUGAGAGAAGUCCACCACGG; listed as RNA, chemistry not given here)
EC50 ([1]; mismatch duplex, single mismatch to reporter at stated guide position, read-out: MM EC50s): 0.096 nM | EC50 ([1]; parent duplex, 100% homology to reporter, read-out: Parent EC50s): 0.037 nM | HBsAg levels relative to control (HBsAg viral transcript; QW×3, 3 mg/kg subcutaneous, monitored 147 days (FIG. 3)): Diminished HBsAg levels persisted in treated mice throughout the entirety of the study | HBsAg levels (HBsAg viral transcript; single dose evaluation, subcutaneous, HDI-mice (FIG. 2)): systematically reduced HBsAg levels in mice with increasing dosage
